The results in this text go back to PubChem BioAssay (NCI).

Values joined by “and” are separate entries in the source; they are usually repeats but may differ in a detail not shown here. Identical values can stand only once.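 Exposure lasted 48 hours, with cells grown in 96-well plates and compounds tested at five concentrations. Here, GI50 denotes the concentration required for 50% inhibition of growth. TGI: concentration producing complete growth inhibition.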 Where only a bound is given, the exact number is not on record here.

Test systems include HOP-62 NSCLC; HT29 colon; KM12 colon; OVCAR-4 ovarian; SF-295 CNS; SN12C renal; UACC-257 melanoma; UACC-62 melanoma.
Holding throughout (assay): inhibition of tumour cell growth, NCI panel, 48 h

As for `O=C(NN1C(=O)CSC1c1c(Cl)cccc1Cl)C(O)c1ccccc1` (centres undefined), the GI50 in the assay on HOP-62 NSCLC was over 100 µM; in the assay with HT29 colon, 33.1 µM; in the assay on KM12 colon, 34.2 µM; with OVCAR-4 ovarian, 29.1 µM; in the assay on SF-295 CNS it was 37.3 µM; in the assay with SN12C renal it was 34.9 µM. Further, the GI50 in the assay on UACC-257 melanoma was 31 µM; with UACC-62 melanoma it was 7.15 µM. Moreover, the TGI in the assay with HOP-62 NSCLC, with HT29 colon, with KM12 colon, in the assay with OVCAR-4 ovarian, in the assay on SF-295 CNS and in the assay on SN12C renal was over 100 µM throughout. Moreover, the TGI was found to be 94.5 µM in the assay with UACC-257 melanoma and 43.5 µM in the assay with UACC-62 melanoma.
As for `COc1cc(C)[nH]c(=O)c1CNC(=O)c1c(C)n([C@H](C)C2CCN(CC(F)(F)F)CC2)c2ccccc12`, the GI50 is over 100 µM with HOP-62 NSCLC; 38.5 µM with HT29 colon; 41.6 µM with KM12 colon; 41.7 µM in the assay with OVCAR-4 ovarian; 31.8 µM with SF-295 CNS; 43 µM in the assay with SN12C renal. Moreover, the results for the GI50 in the assay on UACC-257 melanoma and in the assay with UACC-62 melanoma were 54.2 µM and 32.5 µM, respectively. In addition, the TGI with HOP-62 NSCLC, with HT29 colon, in the assay with KM12 colon, in the assay with OVCAR-4 ovarian, with SF-295 CNS and in the assay with SN12C renal was over 100 µM in each case. The TGI in the assay on UACC-257 melanoma and in the assay with UACC-62 melanoma was over 100 µM each time.
In the case of `O=C(CN1CCN(C(=O)c2ccco2)CC1)Nc1ccc(Cl)cc1C(=O)c1ccccc1Cl`, the GI50 is 16.9 µM with HOP-62 NSCLC; 6.23 µM in the assay on HT29 colon; 7.33 µM with KM12 colon; 5.91 µM in the assay on OVCAR-4 ovarian; 3.13 µM in the assay with SF-295 CNS; 14.6 µM with SN12C renal. Further, the GI50 was 12.5 µM with UACC-257 melanoma and 8.85 µM with UACC-62 melanoma. For the same compound, the TGI in the assay on HOP-62 NSCLC stood at 35.6 µM; in the assay on HT29 colon, 22.3 µM; in the assay on KM12 colon, 20.9 µM; in the assay on OVCAR-4 ovarian, 31.5 µM; in the assay on SF-295 CNS, 15.4 µM; with SN12C renal it was 44.7 µM. Also, the TGI turned out to be 31.8 µM in the assay on UACC-257 melanoma and 23.4 µM in the assay with UACC-62 melanoma.
Consider `COc1ccc(/C=C\c2cc(OC)c(OC)c(OC)c2)c(NS(=O)(=O)c2ccc(F)cc2)c1O`, for which the GI50 is 0.61 µM in the assay on HOP-62 NSCLC; 2.28 µM in the assay on HT29 colon; 0.0556 µM in the assay with KM12 colon; 0.552 µM with OVCAR-4 ovarian; 0.214 µM in the assay on SF-295 CNS; 0.18 µM in the assay on SN12C renal. For the same compound, the results for the GI50 in the assay on UACC-257 melanoma and in the assay with UACC-62 melanoma were 20.5 µM and 0.0452 µM, respectively. The TGI was over 100 µM in the assay with HOP-62 NSCLC; 20.5 µM with HT29 colon; over 100 µM in the assay on KM12 colon; over 100 µM in the assay with OVCAR-4 ovarian; over 45.9 µM with SF-295 CNS; over 100 µM in the assay on SN12C renal. In addition, the TGI in the assay with UACC-257 melanoma is over 100 µM; with UACC-62 melanoma, over 80.1 µM.
Regarding `COC1C(=O)CCC2(CO2)C1(O)C1(C)OC1CC=C(C)C` (centres undefined), the TGI in the assay with HOP-62 NSCLC, with HT29 colon, in the assay with KM12 colon, in the assay on OVCAR-4 ovarian, with SF-295 CNS and in the assay on SN12C renal was over 100 µM throughout. For the same compound, the TGI was over 100 µM with UACC-257 melanoma and 80.8 µM in the assay with UACC-62 melanoma.
Consider `COc1cc2c(cc1[N+](=O)[O-])C(=O)C(Br)(Br)CCC2`, for which the TGI with HOP-62 NSCLC was 14.4 µM; with HT29 colon it was 11.2 µM; in the assay on KM12 colon, 15.2 µM; with OVCAR-4 ovarian, 15.7 µM; with SF-295 CNS, 19.4 µM; in the assay on SN12C renal, 5.16 µM. Besides, the TGI worked out at 26.7 µM in the assay on UACC-257 melanoma and 10 µM with UACC-62 melanoma.
Take `CCCCCCCCCC[C@H](O)[C@H]1CC[C@@H]([C@@H](O)CC[C@H](O)[C@@H]2CCC(CCCCCCC[C@@H](O)CC3=C[C@H](C)OC3=O)O2)O1` (some centres undefined): the GI50 is 4.55 µM in the assay with HOP-62 NSCLC; 4.25 µM in the assay with KM12 colon; 1.22 µM in the assay on SF-295 CNS; 8.18 µM with SN12C renal; 0.921 µM in the assay with UACC-257 melanoma. The TGI was 3.28 µM and 19.4 µM in the assay with HOP-62 NSCLC; 3.5 µM with HT29 colon; 19.6 µM with OVCAR-4 ovarian; 15 µM in the assay with SF-295 CNS; 8.23 µM and 30.6 µM in the assay on SN12C renal; 4.47 µM and 13.8 µM with UACC-257 melanoma. In addition, the TGI in the assay with UACC-62 melanoma was determined as 3.13 µM.
Turning to `CO/C(=C1/NC(=O)C(Cc2ccc(O)c(Br)c2)N(C)C(=O)C(C)NC(=O)CCC/C=C(\C)CCC(C)OC1=O)c1ccccc1` (centres undefined), the GI50 with HOP-62 NSCLC is 0.0369 µM; with HT29 colon, under 0.0135 µM; with KM12 colon it was 0.0784 µM; in the assay with OVCAR-4 ovarian, 0.0225 µM; in the assay with SF-295 CNS, 0.0502 µM; in the assay on SN12C renal it was 0.0695 µM. The GI50 in the assay on UACC-257 melanoma is 0.029 µM; in the assay with UACC-62 melanoma, 0.0753 µM. Further, the TGI in the assay with HOP-62 NSCLC was 1.18 µM; in the assay on KM12 colon, 19.2 µM; in the assay on SF-295 CNS, 0.17 µM; in the assay on SN12C renal, over 100 µM; in the assay on UACC-257 melanoma it was 0.15 µM; in the assay on UACC-62 melanoma, 20.4 µM.
Regarding `CC1(C)C(CC(=O)O)CCCC1CC(=O)O` (centres undefined), the TGI with HOP-62 NSCLC, with HT29 colon, in the assay with KM12 colon, in the assay with OVCAR-4 ovarian, in the assay with SF-295 CNS and with SN12C renal was over 100 µM throughout. Besides, the TGI in the assay on UACC-257 melanoma and in the assay with UACC-62 melanoma was over 100 µM throughout.
As for `CC(=O)Nc1cc2c3c(cccc3c1)-c1ccccc1-2`, the GI50 with HOP-62 NSCLC is 22.7 µM; in the assay on HT29 colon it was over 100 µM; with KM12 colon, 32.7 µM; in the assay with OVCAR-4 ovarian, over 100 µM; in the assay with SF-295 CNS, 5.13 µM; in the assay on SN12C renal, 0.72 µM. In addition, the figures for the GI50 in the assay on UACC-257 melanoma and in the assay on UACC-62 melanoma were 90.3 µM and 40 µM, respectively. Besides, the TGI in the assay on HOP-62 NSCLC is 69.5 µM; in the assay with HT29 colon it was over 100 µM; in the assay on KM12 colon, over 100 µM; in the assay with OVCAR-4 ovarian it was over 100 µM; in the assay on SF-295 CNS, 22.6 µM; in the assay with SN12C renal, over 100 µM. Also, the TGI in the assay with UACC-257 melanoma and in the assay on UACC-62 melanoma was over 100 µM throughout.
With `CN(C)c1ccc(/C=c2/c3cc(O)ccc3n3c2cc(-c2ccccc2)[n+]3C)cc1`, the TGI is 4.37 µM in the assay on HOP-62 NSCLC; 3.86 µM in the assay with HT29 colon; 2.29 µM in the assay with KM12 colon; over 100 µM with OVCAR-4 ovarian; over 100 µM in the assay on SF-295 CNS; 3.07 µM with UACC-257 melanoma. Besides, the GI50 was 2.83 µM with OVCAR-4 ovarian, 0.187 µM in the assay with SN12C renal and over 100 µM in the assay with UACC-62 melanoma.
